The test concerns the target T1, HCV NS3 helicase NS3h_1b(con1) (Hepatitis C virus genotype 1b, UniProt Q9WMX2).
T1 construct: truncated C-terminally His-tagged NS3 proteins lacking the N-terminal protease, called NS3h; His-tag (C); made in house
The test can be described thus: MBHA screen of NCI mechanistic set library at 20 μM (percent inhibition, compound interference). The test is classed as biochemical. To be noted: compounds at 20 μM; for Inh. (%) (Inhibition): calculated from Equation 1. The procedure:
All molecular beacon-based helicase assays (MBHAs) were performed according to known methods (Belon & Frick (2008) supra; Belon & Frick (2009) supra). […] In each flat, black 384-well plate, 56 compounds were tested, in triplicate, along with three negative controls (DMSO only), three positive controls (500 nM dT20), and two wells with no enzyme. Fluorescence was read before ATP (F0) addition and 30 minutes after ATP was added to 1 mM (F30) using a Tecan Infinite M200 fluorescence microplate reader with excitation and emission wavelengths set to 643 and 670 nm, respectively. Percent inhibition was calculated with equation 1, and compound interference in the MBHA was calculated with equation 2.
In Equations 1 and 2, Fc0 is the fluorescence of the reactions containing the test compound before adding ATP, Fc30 is the fluorescence of the test compound reaction 30 minutes after adding ATP. F(−)0 is the average of three DMSO-only negative control reactions before adding ATP and F(−)30 is the average of three DMSO-only reactions 30 minutes after adding ATP.
To identify HCV helicase inhibitors, the MBHA was first used to screen the National Cancer Institute Developmental Therapeutics Program's mechanistic set library. In total, 827 compounds (at 20 μM) were screened using a MBHA with a DNA substrate (Table 1). Compounds were ranked by their ability to inhibit HCV helicase-catalyzed DNA unwinding as calculated from Equation 1.
Compound interference in the MBHA was evaluated by comparing the fluorescence of reactions containing each compound to the fluorescence of DMSO-only negative controls before ATP was added.

Setting [1] is: MBHA with DNA substrate, assay interference calculated with Equation 2.
The mark [2] stands for this setting: assay interference calculated with Equation 2 (fluorescence vs DMSO-only controls before ATP).

We go through 34 molecules from patent US9464064B2, “HCV helicase inhibitors and methods of use thereof” (University of Kansas, priority 2011, dated 2016).

Each structure is given as a SMILES string. Starred links: 1 amine or outer side, 2 acyl side, 3 side chain; linkers in the order of their positions; H or OH if unused. Positions of bridges follow the written chain, without caps; N, C: chain ends. Non-standard residues stand in square brackets, D forms with d. Residues, ends and D or L forms follow the SMILES beside them. Chains are numbered I, II in the order given. Actinocin(9to1) = Cc1c2oc3c(C)ccc(C(=O)[*:1])c3nc-2c(C(=O)[*:2])c(N)c1=O; NMeV = CN[C@H](C(=O)O)C(C)C; Sar = CNCC(=O)O

T1 sequence (Q9WMX2 1192-1657): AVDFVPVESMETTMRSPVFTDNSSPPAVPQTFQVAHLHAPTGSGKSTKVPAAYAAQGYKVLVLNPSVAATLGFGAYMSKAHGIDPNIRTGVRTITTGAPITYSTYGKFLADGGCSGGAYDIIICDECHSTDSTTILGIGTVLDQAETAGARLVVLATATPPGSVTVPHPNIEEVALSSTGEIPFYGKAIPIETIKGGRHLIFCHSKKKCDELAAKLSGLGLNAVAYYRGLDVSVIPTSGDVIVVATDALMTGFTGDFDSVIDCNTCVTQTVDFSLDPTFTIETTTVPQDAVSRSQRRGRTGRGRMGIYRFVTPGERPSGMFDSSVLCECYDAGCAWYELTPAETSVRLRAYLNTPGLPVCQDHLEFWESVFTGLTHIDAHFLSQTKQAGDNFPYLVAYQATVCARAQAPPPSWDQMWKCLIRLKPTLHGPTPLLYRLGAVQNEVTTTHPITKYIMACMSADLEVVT

`O=C(O)c1ccc(NC(c2ccccc2)c2ccc3cccnc3c2O)cc1` (centres unmarked) [Compound 1011]: under setting [1], the “Int.* (Ratio) (Interference)” value is reported as 0.87 Ratio. Also, the “Inh. (%) (Inhibition)” value (MBHA with DNA substrate) is recorded as 3.7%.
Consider `NC1(C(=O)O)CCCC1` [Compound 1026], for which the “Inh. (%) (Inhibition)” value (MBHA with a DNA substrate) is 9.0%. Moreover, the “Int.* (Ratio) (Interference)” value under setting [2] is 0.90 Ratio.
For `CC(C)(Br)C(=O)C(Br)Br` [Compound 1027] the same measures were 7.0% and 0.91 Ratio.
For `c1coc(CNc2ncnc3[nH]ncc23)c1` [Compound 1620] the same measures were −3.0% and 1.06 Ratio.
For `CN(C)C(=S)SSC(=S)N(C)C` [Compound 1771], the “Int.* (Ratio) (Interference)” value under setting [1] was 0.98 Ratio. The “Inh. (%) (Inhibition)” value (MBHA with DNA substrate) is listed as 0.2%.
The corresponding values for `C1CCNCC1.S=C(S)N1CCCCC1` [Compound 1906] are 1.17 Ratio and −1.6%.
With `Cc1cc(O)c(C(C)C)cc1C1(c2cc(C(C)C)c(O)cc2C)OC(=O)c2ccccc21` [Compound 2186], the “Inh. (%) (Inhibition)” value (MBHA with a DNA substrate) is given as −22.0%. Further, under setting [2], the “Int.* (Ratio) (Interference)” value is 1.01 Ratio.
For the molecule `CC(C)C1(Cl)CCC2C3(C)CCCC(C)(C(=O)O)C3CC(Cl)C2(Cl)C1Cl` (centres unmarked) [Compound 2979], the “Int.* (Ratio) (Interference)” value under setting [1] is recorded as 1.00 Ratio. The “Inh. (%) (Inhibition)” value (MBHA with DNA substrate) is −12.5%.
`Cc1c2oc3c(C)ccc(C(=O)N[C@@H]4C(=O)N[C@H](C(C)C)C(=O)N5CCC[C@H]5C(=O)N(C)CC(=O)N(C)[C@@H](C(C)C)C(=O)O[C@@H]4C)c3nc-2c(C(=O)N[C@@H]2C(=O)N[C@H](C(C)C)C(=O)N3CCC[C@H]3C(=O)N(C)CC(=O)N(C)[C@@H](C(C)C)C(=O)O[C@@H]2C)c(N)c1=O` [Compound 3053] (I: T[dV]P[Sar][NMeV] / II: T[dV]P[Sar][NMeV]; ester I:1-I:C, II:1-II:C; linker I:N-II:N via Actinocin(9to1)): the “Int.* (Ratio) (Interference)” value under setting [1] is listed as 0.55 Ratio. Further, the “Inh. (%) (Inhibition)” value (MBHA with DNA substrate) is listed as 67.5%.
`O=Nc1ccc(O)c2ncccc12` [Compound 3852]: the “Int.* (Ratio) (Interference)” value under setting [1] is listed as 1.01 Ratio. Moreover, the “Inh. (%) (Inhibition)” value (MBHA with DNA substrate) was −15.7%.
The corresponding values for `c1ccc(-c2cccc(-c3ccccn3)n2)nc1` [Compound 3905] are 0.92 Ratio and 5.7%.
As for `C1COCCN1.S=C(S)N1CCOCC1` [Compound 4114], for the setting “MBHA with a DNA substrate”, the “Inh. (%) (Inhibition)” value is 7.2%. For the same molecule, the “Int.* (Ratio) (Interference)” value under setting [2] was 1.15 Ratio.
For `CC1=CC(=O)c2ccccc2C1=O` [Compound 4170] the same measures were −27.3% and 1.09 Ratio.
For `Cc1ccc2ccc3ccc(C)nc3c2n1` [Compound 4280], the “Int.* (Ratio) (Interference)” value under setting [1] is recorded as 1.01 Ratio. In addition, the “Inh. (%) (Inhibition)” value (MBHA with DNA substrate) is recorded as −9.2%.
For `COC1CC(OC2CCC3(C=O)C4CCC5(C)C(C6=CC(=O)OC6)CCC5(O)C4CCC3(O)C2)OC(C)C1OC1OC(CO)C(O)C(O)C1O` (centres unmarked) [Compound 4320] the same measures were 0.95 Ratio and −12.6%.
For the molecule `C=C(C)[C@@H]1CC[C@]2(CO)CC[C@]3(C)[C@H](CC[C@@H]4[C@@]5(C)CC[C@H](O)C(C)(C)[C@@H]5CC[C@]43C)[C@@H]12` [Compound 4644], the “Int.* (Ratio) (Interference)” value under setting [1] was 1.32 Ratio. In addition, the “Inh. (%) (Inhibition)” value (MBHA with DNA substrate) was −13.9%.
For `Nc1nncs1` [Compound 4728] the same measures were 1.07 Ratio and 5.9%.
Take `O=[N+]([O-])c1ccc(N=Nc2c(O)[nH]c3ccccc23)c([N+](=O)[O-])c1` [Compound 4810]: the “Int.* (Ratio) (Interference)” value under setting [1] was 1.01 Ratio. Also, the “Inh. (%) (Inhibition)” value (MBHA with DNA substrate) was −15.4%.
For `CCN(CC)C(=S)S` [Compound 4857] the same measures were 1.07 Ratio and −8.0%.
Take `COc1ccc(O)cc1` [Compound 4960]: the “Inh. (%) (Inhibition)” value (MBHA with a DNA substrate) is recorded as −4.5%. The “Int.* (Ratio) (Interference)” value under setting [2] is reported as 0.90 Ratio.
For `CO[C@H]1[C@@H](O)[C@@H](C)O[C@H](O[C@H]2[C@H](Oc3cccc4c(O)c5c(=O)oc6ccc(C)c7c(=O)oc(c34)c5c67)O[C@H](C)[C@H](O)[C@@H]2O)[C@@H]1O` [Compound 5159], the “Int.* (Ratio) (Interference)” value under setting [1] is reported as 1.03 Ratio. Also, the “Inh. (%) (Inhibition)” value (MBHA with DNA substrate) is recorded as 38.6%.
For `Nc1nc(N)c(N=Nc2ccccc2)c(=O)[nH]1` [Compound 5200], the “Inh. (%) (Inhibition)” value (MBHA with a DNA substrate) was 7.0%. Further, the “Int.* (Ratio) (Interference)” value under setting [2] is 1.02 Ratio.
For `Nc1ccccc1N` [Compound 5354] the same measures were 10.6% and 0.97 Ratio.
`O=C1c2cccc(O)c2C(=O)c2c(O)cccc21` [Compound 7210]: the “Int.* (Ratio) (Interference)” value under setting [1] is given as 0.97 Ratio. Under “MBHA with DNA substrate”, the “Inh. (%) (Inhibition)” value was −0.5%.
The corresponding values for `Cc1nc(N)nc(N)c1-c1ccc(Cl)c(Cl)c1` [Compound 7364] are 0.86 Ratio and 20.2%.
The corresponding values for `CC1OC(O[C@@H]2C=C3CC[C@@H]4[C@H](CC[C@]5(C)[C@@H](c6ccc(=O)oc6)CC[C@]45O)[C@@]3(C)CC2)C(O)C(O)C1O` (some centres unmarked) [Compound 7521] are 0.94 Ratio and 5.5%.
In the case of `COC1CC(O[C@H]2CC[C@]3(C=O)[C@H]4CC[C@]5(C)[C@@H](C6=CC(=O)OC6)CC[C@]5(O)[C@@H]4CC[C@]3(O)C2)OC(C)C1O` (some centres unmarked) [Compound 7522], the “Inh. (%) (Inhibition)” value (MBHA with a DNA substrate) is recorded as −24.0%. Moreover, the “Int.* (Ratio) (Interference)” value under setting [2] was 0.97 Ratio.
The corresponding values for `COC1CC(OC2CCC3(C=O)C4CCC5(C)C(C6=CC(=O)OC6)CCC5(O)C4CCC3(O)C2)OC(C)C1OC1OC(COC2OC(CO)C(O)C(O)C2O)C(O)C(O)C1O` (centres unmarked) [Compound 7530] are −19.7% and 0.98 Ratio.
For `CC(=O)O[C@H]1C[C@H](O[C@H]2[C@@H](O)C[C@H](O[C@H]3[C@@H](O)C[C@H](O[C@H]4CC[C@@]5(C)[C@H](CC[C@@H]6[C@@H]5CC[C@]5(C)[C@@H](C7=CC(=O)OC7)CC[C@]65O)C4)O[C@@H]3C)O[C@@H]2C)OC(C)[C@H]1O[C@@H]1O[C@H](CO)[C@@H](O)[C@H](O)[C@H]1O` (some centres unmarked) [Compound 7532] the same measures were −3.4% and 0.89 Ratio.
As to `Nc1ccc(N)c2c1C(=O)c1ccccc1C2=O` [Compound 7833], under setting [1], the “Int.* (Ratio) (Interference)” value is on record as 1.07 Ratio. Moreover, the “Inh. (%) (Inhibition)” value (MBHA with DNA substrate) is reported as −18.7%.
For `C1CN1c1nc(N2CC2)nc(N2CC2)n1` [Compound 9706] the same measures were 0.98 Ratio and −10.9%.
For `CCCCCCCC/C=C\CCCCCCCC(=O)O` [Compound 9856] the same measures were 0.84 Ratio and 12.6%.
Turning to `COc1ccc2nc(C)cc(NCCCCCCCCCNc3cc(C)nc4ccc(OC)cc34)c2c1` [Compound 10010], the “Int.* (Ratio) (Interference)” value under setting [1] is 0.23 Ratio. In addition, the “Inh. (%) (Inhibition)” value (MBHA with DNA substrate) was 56.7%.
The corresponding values for `O=C1c2ccccc2C(=O)c2c(O)c(O)cc(O)c21` [Compound 10447] are 1.06 Ratio and 5.6%.
